Data from patent publication US7285528B2, “Agonists and antagonists of gonadotropin-releasing hormone-2, and use thereof” (priority 2002, dated 2007).
Where a SMILES comes first, the peptide text is derived from it. [ ]: non-standard residue; d: D form. pGlu = O=C1CC[C@@H](C(=O)O)N1

Columns and labels:
bfGnRHR-1 = test: Inositol phosphate (IP) production, GH3 cells expressing bfGnRHR-1; format: cell-based, bullfrog; details: for Log EC50: log of EC50 (negative values), concentration inducing half-maximal stimulation, 30 min
Description: (§1) The GnRH receptor, a membrane protein connected with the G protein, activates the G protein when activated by a ligand, and the activated G protein activates phospholipase C and thereby the synthesis of inositol phosphate (IP), which is the second transmitter in cells, is increased. Based on this principle, the activity of a receptor can be investigated by measuring the amount of IP within cells. GH3 cell lines were obtained from the Cell Line Bank at the Cancer Research Center, Seoul National University College of Medicine, located in Seoul, Republic of Korea. The GH3 cell lines were infected with retroviruses comprising genes encoding […]-2, and bfGnRHR-3 which are bullfrog GnRH receptors, and rat GnRHR, and cell lines expressing each of these receptors were obtained. The GH3 cells expressing […]-3, and rat GnRHR were cultured on 12-well plates. After 24 hours, the cells were cultured again for 24 hours in a media containing no inositol, to which H^3-myoinositol was added. […] Thereafter, they were treated with GnRH having a suitable concentration, cultured at 37° C. for another 30 minutes, and then the media was eliminated. The cells were treated with 10 mM of ice-cold formic acid to terminate the reaction, and the cell extracts were mixed with Dowex anionic exchange resins. These resins were washed with distilled water, IP was extracted with 1 M ammonium formate/0.1 M formic acid, and cpm (count per minute) was determined. The GH3 cell lines were infected with retroviruses comprising genes encoding […]-2, and bfGnRHR-3 which are bullfrog GnRH receptors, and rat GnRHR, and cell lines expressing each of these receptors were obtained. […] In all the cell lines it was observed that when they were treated with GnRH and the agonists, IP was formed in a concentration-dependent manner.

bfGnRHR-2 = test: Inositol phosphate (IP) production, GH3 cells expressing bfGnRHR-2; format: cell-based, bullfrog; details: log of EC50 (negative values), concentration inducing half-maximal stimulation, 30 min
Description: as §1

bfGnRHR-3 [1] = test: Inositol phosphate (IP) production, GH3 cells expressing bfGnRHR-3; format: cell-based, bullfrog; details: log of EC50 (negative values), concentration inducing half-maximal stimulation, 30 min
Description: as §1

Primate GnRH-2 receptor = test: c-fos-luc luciferase activation by agonists, CV-1 cells expressing Primate GnRH-2 receptor; format: cell-based, Primates; details: luciferase activation; for Log EC50: log of EC50 (negative values); for Log EC50 / Emax (fold-induction): average of three independent experiments; for Ratio of EC50 values based on EC50 value of GnRH-2: GnRH-2 = 1
Protocol: Complimentary DNA (cDNA) for a Primate GnRH-2 receptor was obtained from a CV-1 cell genome. […] Plasmids having Primate GnRH-2 receptors where transfected into CV-1 cells. To assay the activity of the receptor, c-fos-luc where a luciferase gene is fused with a c-fos promoter was co-transfected as a probe gene. After 48 hours from transfection, the cells were treated with GnRH-2 agonists and then the activity of luciferase was assayed (Seong et al., Endocrinology vol 144 2003, 454-466). […] Of the GnRH-2 receptors, [[…]]GnRH-2 performed excellently, showing effects about 3 times that of a wild-type ligand, GnRH-2. […] When analogs where the 5th, 7th, and 8th amino acids of [[…]]GnRH-2 are substituted were used, it was observed that their effects were weaker than [[…]]GnRH-2, and therefore it can be seen that it is important to maintain His, Trp, and Tyr that are found at the 5th, 7th, and 8th positions of GnRH-2 as they are (FIG. 3b). Log EC50 values and Emax values of GnRH-2 agonists are average values of experiments that were conducted independently three times. Ratio^a represents the ratio of EC50 values of other GnRH analogs based on EC50 values of GnRH-2.

bfGnRHR-3 [2] = test: Ligand-receptor binding assay, I125-GnRH-2 competition, membranes of GH3 cells expressing bfGnRHR-3; design: species or system bullfrog; details: log of IC50 (negative values); competition with I125-GnRH-2, 4° C., 16 hours
Protocol: To determine the binding affinity between GnRH and GnRH receptors, GnRH-2 was radiolabeled with I^125. The GH3 cells expressing bfGnRHR-1, bfGnRHR-2, bfGnRHR-3, and rat GnRHR constructed in Example 2-3 above were cultured on 100-mm dishes. After 48 hours, the cells were homogenized to obtain cellular membranes, which were then dissolved in binding buffer (40 mM Tris, pH 7.4, 2 mM MgCl2). 20 μg of membrane proteins were reacted with I^125-GnRH-2 at 4° C. for 16 hours. […] After the reaction was completed, 1^125-GnRH-2 bound to the receptors was filtered using a Brandel harvester, and cpm was measured using a γ-counter.
The GH3 cells expressing bfGnRHR-3 obtained from Example 6-1 above were treated with l^125GnRH-2 and GnRH-2 agonists and antagonists at various concentrations to determine the binding affinity of GnRH-2 agonists and antagonists toward the receptors.

rat GnRHR = target: T1, rat GnRHR (Rattus norvegicus, UniProt P30969); test: Inositol phosphate (IP) production, GH3 cells expressing rat GnRHR; format: cell-based; details: for sensitivity compared with GnRH-1: rat GnRHR
T1 construct: expressed in transfected cells; host or cells: GH3 cells, retrovirus-mediated infection
T1 sequence (P30969 1-327): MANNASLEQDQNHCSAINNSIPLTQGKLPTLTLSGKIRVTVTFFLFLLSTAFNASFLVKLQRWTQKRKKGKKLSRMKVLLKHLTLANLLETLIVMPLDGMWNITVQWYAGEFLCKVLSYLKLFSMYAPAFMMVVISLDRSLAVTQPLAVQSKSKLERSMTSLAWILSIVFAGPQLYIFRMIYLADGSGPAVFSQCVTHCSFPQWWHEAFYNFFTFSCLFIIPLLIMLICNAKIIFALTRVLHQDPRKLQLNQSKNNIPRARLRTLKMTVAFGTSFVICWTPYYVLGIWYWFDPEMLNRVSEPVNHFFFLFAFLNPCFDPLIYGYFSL
Description: The GnRH receptor, a membrane protein connected with the G protein, activates the G protein when activated by a ligand, and the activated G protein activates phospholipase C and thereby the synthesis of inositol phosphate (IP), which is the second transmitter in cells, is increased. Based on this principle, the activity of a receptor can be investigated by measuring the amount of IP within cells. GH3 cell lines were obtained from the Cell Line Bank at the Cancer Research Center, Seoul National University College of Medicine, located in Seoul, Republic of Korea. The GH3 cell lines were infected with retroviruses comprising genes encoding […]-2, and bfGnRHR-3 which are bullfrog GnRH receptors, and rat GnRHR, and cell lines expressing each of these receptors were obtained. The GH3 cells expressing […]-3, and rat GnRHR were cultured on 12-well plates. After 24 hours, the cells were cultured again for 24 hours in a media containing no inositol, to which H^3-myoinositol was added. […] Thereafter, they were treated with GnRH having a suitable concentration, cultured at 37° C. for another 30 minutes, and then the media was eliminated. The cells were treated with 10 mM of ice-cold formic acid to terminate the reaction, and the cell extracts were mixed with Dowex anionic exchange resins. These resins were washed with distilled water, IP was extracted with 1 M ammonium formate/0.1 M formic acid, and cpm (count per minute) was determined. The GH3 cell lines were infected with retroviruses comprising genes encoding […]-2, and bfGnRHR-3 which are bullfrog GnRH receptors, and rat GnRHR, and cell lines expressing each of these receptors were obtained.

[3] = test system: luteinizing hormone and testosterone secretion; test: GnRH-2 agonist-induced serum LH and testosterone levels in male rat (radioimmunoassay); format: in vivo; details: 10 μg injected
Protocol: Example 3: GnRH-2 Agonist-induced serum LH and testosterone levels [D-Ala^6]GnRH-2 was dissolved in saline at a concentration of 100 μg/ml, and then 10 μg of [D-Ala^6]GnRH-2 was injected into the cervix of a male rat (Sprague Dawley rat having a weight of approximately 100 g). 1, 2, 4, and 8 hours after the injection, serum was obtained from the rat. The concentration of luteinizing hormone and testosterone present in the serum was measured by radioimmunoassay.

TSU-Pri cells = test: Binding of radiolabeled GnRH to TSU-Pri prostate cancer cells and competition; design: species or system human; details: for reduction of radiolabeled GnRH-2 binding to TSU-Pri cells by unradiolabeled competitor: unradiolabeled peptide as competitor
Protocol: The radiolabeled GnRH and the cells were cultured at room temperature for 6 hours, and then washed with PBS (phosphate-buffered saline) several times to eliminate the unbound GnRH. Thereafter, the cells were isolated and radioactivity from the cells was measured using a γ-counter.

[4] = cells expressing rat GnRH receptor

| Compound | Log EC50 (bfGnRHR-1) | Log EC50 (bfGnRHR-2) | Log EC50 (bfGnRHR-3 [1]) | Log EC50 (Primate GnRH-2 receptor) | fold lower effect than GnRH-2 (Primate GnRH-2 receptor) [fold] | Ratio of EC50 values based on EC50 value of GnRH-2 (Primate GnRH-2 receptor) | Emax (fold-induction) (Primate GnRH-2 receptor) | Binding affinity (log IC50 value) (bfGnRHR-3 [2]) | fold lower activating concentration than GnRH-2 (bfGnRHR-1) [fold] | fold higher sensitivity than GnRH-2 (rat GnRHR; [4]) [fold] | fold lower sensitivity than GnRH-1 (rat GnRHR; [4]) [fold] | sensitivity compared with GnRH-1 (rat GnRHR) | serum luteinizing hormone (LH) ([3]; male Sprague Dawley rat about 100 g, serum 1, 2, 4, 8 hours) | time of serum testosterone peak after injection ([3]; male rat) [h] | serum testosterone ([3]; male rat, compared with before the injection) | reduction of radiolabeled GnRH-2 binding to TSU-Pri cells by unradiolabeled competitor (TSU-Pri cells) | binding of radiolabeled ligand to TSU-Pri cells (TSU-Pri cells; I125-radiolabeled peptide, room temperature, 6 hours) |
| --- | --- | --- | --- | --- | --- | --- | --- | --- | --- | --- | --- | --- | --- | --- | --- | --- | --- |
| NC(=O)CNC(=O)[C@@H]1CCCN1C(=O)[C@H](Cc1ccc(O)cc1)NC(=O)[C@H](Cc1c[nH]c2ccccc12)NC(=O)[C@@H](Cc1c[nH]c2ccccc12)NC(=O)[C@H](Cc1c[nH]cn1)NC(=O)[C@H](CO)NC(=O)[C@H](Cc1c[nH]c2ccccc12)NC(=O)[C@H](Cc1c[nH]cn1)NC(=O)[C@@H]1CCC(=O)N1 [[D-Trp^6]GnRH-2] ([pGlu]HWSH[dW]WYPG-NH2) | −9.40 ± 0.12 | −9.21 ± 0.13 | −9.22 ± 0.11 | −8.31 ± 0.09 | ~1.2 | 1.20 | 11.20 ± 0.32 | −8.10 ± 0.11 |  |  |  |  |  |  |  |  |  |
| C[C@@H](NC(=O)[C@H](Cc1c[nH]cn1)NC(=O)[C@H](CO)NC(=O)[C@H](Cc1c[nH]c2ccccc12)NC(=O)[C@H](Cc1c[nH]cn1)NC(=O)[C@@H]1CCC(=O)N1)C(=O)N[C@@H](Cc1c[nH]c2ccccc12)C(=O)N[C@@H](Cc1ccc(O)cc1)C(=O)N1CCC[C@H]1C(=O)NCC(N)=O [[D-Ala^6]GnRH-2, p-Glu-His-Trp-Ser-His-D-Ala-Trp-Tyr-Pro-GlyNH2] ([pGlu]HWSH[dA]WYPG-NH2) | −9.91 ± 0.13 | −9.91 ± 0.19 | −9.89 ± 0.10 | −8.81 ± 0.12 |  | 0.38 | 11.84 ± 0.47 | −9.83 ± 0.14 | ~8 | 5 | 3.5 | a sensitivity lower than 10-fold | an increase of luteinizing hormone (LH) was observed in only one hour | 4 | significantly high value even after 8 hours | reduced in a concentration-dependent manner |  |
| NC(=O)CNC(=O)[C@@H]1CCCN1C(=O)[C@H](Cc1ccc(O)cc1)NC(=O)[C@H](Cc1c[nH]c2ccccc12)NC(=O)CNC(=O)[C@H](Cc1c[nH]cn1)NC(=O)[C@H](CO)NC(=O)[C@H](Cc1c[nH]c2ccccc12)NC(=O)[C@H](Cc1c[nH]cn1)NC(=O)[C@@H]1CCC(=O)N1 [GnRH-2] ([pGlu]HWSHGWYPG-NH2) | −9.41 ± 0.13 | −8.98 ± 0.14 | −9.51 ± 0.10 | −8.39 ± 0.10 |  | 1 | 11.74 ± 0.31 | −8.63 ± 0.14 |  |  |  | a sensitivity lower than 10-fold |  |  |  | the binding was reduced | binding with cells was observed |
